# Reference: patent US7550456B2, “Substituted aryl cycloalkanoyl derivatives and methods of their use” (Wyeth, priority 2003, dated 2009)
# Structures can show the parent of a compound that is named as a salt.
# Target: T1, human hNET (Homo sapiens, UniProt P23975)
# T1 construct: expressed in transfected cells; host or cells: MDCK-Net6 (MDCK cells, stably transfected)
# Assay: Norepinephrine (NE) uptake assay in MDCK-Net6 cells
# Assay type: cell-based
# Settings: 1 μM test compound, [3H]NE uptake
# Protocol: Cells were plated at 300,000/T75 flask and cells were split twice weekly. […] Cells were plated at 250,000 cells/T75 flask and split twice weekly.
# Norepinephrine (NE) Uptake Assay
# On day 1, cells were plated at 3,000 cells/well in growth medium and maintained in a cell incubator (37° C., 5% CO2). On day 2, growth medium was replaced with 200 μl of assay buffer (25 mM HEPES; 120 mM NaCl; 5 mM KCl; 2.5 mM CaCl2; 1.2 mM MgSO4; 2 mg/ml glucose (pH 7.4, 37° C.)) containing 0.2 mg/ml ascorbic acid and 10 μM pargyline. Plates containing cells with 200 μl of assay buffer were equilibrated for 10 minutes at 37° C. prior to addition of compounds. A stock solution of desipramine was prepared in DMSO (10 mM) and delivered to triplicate wells containing cells for a final test concentration of 1 μM. Data from these wells were used to define non-specific NE uptake (minimum NE uptake). Test compounds were prepared in DMSO (10 mM) and diluted in assay buffer according to test range (1 to 10,000 nM). Twenty-five microliters of assay buffer (maximum NE uptake) or test compound were added directly to triplicate wells containing cells in 200 μl of assay buffer. The cells in assay buffer with test compounds were incubated for 20 minutes at 37° C. […] The reaction was terminated by decanting the supernatant from the plate. The plates containing cells were washed twice with 200 μl assay buffer (37° C.) to remove free radioligand. The plates were then inverted, left to dry for 2 minutes, then reinverted and air-dried for an additional 10 minutes. The cells were lysed in 25 μl of 0.25 N NaOH solution (4° C.), placed on a shake table and vigorously shaken for 5 minutes. After cell lysis, 75 μl of scintillation cocktail was added to each well and the plates were sealed with film tape. The plates were returned to the shake table and vigorously shaken for a minimum of 10 minutes to ensure adequate partitioning of organic and aqueous solutions. The plates were counted in a Wallac Microbeta counter (PerkinElmer) to collect the raw cpm data.
# For each experiment, a data stream of cpm values collected from the Wallac Microbeta counter was downloaded to a Microsoft Excel statistical application program. Calculations of EC50 values were made using the transformed-both-sides logistic dose response program written by Wyeth Biometrics Department.
# T1 sequence (P23975 whole entry): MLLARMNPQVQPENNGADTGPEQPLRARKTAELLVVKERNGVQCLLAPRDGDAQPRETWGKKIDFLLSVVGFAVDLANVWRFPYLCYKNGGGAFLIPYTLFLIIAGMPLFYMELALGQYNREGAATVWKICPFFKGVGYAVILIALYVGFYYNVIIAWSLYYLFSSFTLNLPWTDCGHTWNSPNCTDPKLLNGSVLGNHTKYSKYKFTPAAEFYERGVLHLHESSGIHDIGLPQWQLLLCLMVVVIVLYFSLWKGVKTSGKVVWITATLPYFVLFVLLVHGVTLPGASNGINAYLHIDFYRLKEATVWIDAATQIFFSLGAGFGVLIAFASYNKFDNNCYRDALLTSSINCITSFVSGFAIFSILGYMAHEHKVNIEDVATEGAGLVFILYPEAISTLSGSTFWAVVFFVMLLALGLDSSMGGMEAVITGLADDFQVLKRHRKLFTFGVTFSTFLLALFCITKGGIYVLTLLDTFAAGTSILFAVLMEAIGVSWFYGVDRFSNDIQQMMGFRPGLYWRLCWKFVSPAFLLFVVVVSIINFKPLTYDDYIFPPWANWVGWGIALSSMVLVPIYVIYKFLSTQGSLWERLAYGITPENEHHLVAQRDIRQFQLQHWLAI
row,Compound,% Inhibition @ 1 μM (hNET)
1,1-[1-[4-methoxy-3-(trifluoromethoxy)phenyl]-2-(4-methylpiperazin-1-yl)ethyl]cyclohexanoldihydrochloride [Example 403],48%

# Same assay, conditions: 1 μM test compound, [3H]NE uptake, read-out: % Inhibition @ 1 μM (hNET)
row,Compound,inhibition at 1 µM
1,"CC[C@H]1CN(C[C@H](c2cccc(OC(F)(F)F)c2)C2(O)CCCCC2)CCN1C [Example 351, 1-{(1S)-2-[(3S)-3-ethyl-4-methylpiperazin-1-yl]-1-[3-(trifluoromethoxy)phenyl]ethyl}cyclohexanol dihydrochloride]",61%
2,"CN1CCN(CC(c2ccc(OCCc3ccccc3)c(Cl)c2)C2(O)CCCCC2)CC1 (centres unmarked) [Example 453, 1-[1-[3-chloro-4-(2-phenylethoxy)phenyl]-2-(4-methylpiperazin-1-yl)ethyl]cyclohexanol dihydrochloride]",82%
3,"CN1CCN(CC(c2ccc(OCc3cccc(C(F)(F)F)c3)c(Cl)c2)C2(O)CCCCC2)CC1 (centres unmarked) [Example 424, 1-[1-(3-chloro-4-{[3-(trifluoromethyl)benzyl]oxy}phenyl)-2-(4-methylpiperazin-1-yl)ethyl]cyclohexanol dihydrochloride]",75%
4,"OC1(C(CN2CCNCC2)c2ccc(-c3cc(Cl)ccc3Cl)cc2)CCCCC1 (centres unmarked) [Example 291, 1-[1-(2′,5′-dichloro-1,1′-biphenyl-4-yl)-2-piperazin-1-ylethyl]cyclohexanol dihydrochloride]",40%
5,"OC1(C(CN2CCNCC2)c2ccc(-c3ccsc3)cc2)CCCCC1 (centres unmarked) [Example 174, 1-[2-piperazin-1-yl-1-(4-thien-3-ylphenyl)ethyl]cyclohexanol dihydrochloride]",2%
6,"OC1(C(CN2CCNCC2)c2ccc(-c3ccccc3)cc2)CCCCC1 (centres unmarked) [Example 157, 1-[1-(1,1′-biphenyl-4-yl)-2-piperazin-1-ylethyl]cyclohexanol dihydrochloride]",54%
7,"C=Cc1cccc(C(CN2CCNCC2)C2(O)CCCCC2)c1 (centres unmarked) [Example 162, 1-[2-piperazin-1-yl-1-(3-vinylphenyl)ethyl]cyclohexanol dihydrochloride]",78%
8,"OC1(C(CN2CCNCC2)c2ccc(-c3cccc(Cl)c3)cc2)CCC1 (centres unmarked) [Example 182, 1-[1-(3′-chloro-1,1′-biphenyl-4-yl)-2-piperazin-1-ylethyl]cyclobutanol dihydrochloride]",43%
9,"CN1CCN(CC(c2ccc(-c3cccc(Cl)c3)cc2)C2(O)CCCCC2)CC1 (centres unmarked) [Example 176, 1-[1-(3′-chloro-1,1′-biphenyl-4-yl)-2-(4-methylpiperazin-1-yl)ethyl]cyclohexanol dihydrochloride]",28%
10,"CCOc1ccc(C(CN2CCNCC2)C2(O)CCCCC2)cc1OC(F)(F)F (centres unmarked) [Example 404, 1-{1-[4-ethoxy-3-(trifluoromethoxy)phenyl]-2-piperazin-1-ylethyl}cyclohexanol dihydrochloride]",42%
11,"N#Cc1cc(C(CN2CCNCC2)C2(O)CCCCC2)ccc1OCc1ccccc1 (centres unmarked) [Example 266, 2-(benzyloxy)-5-[1-(1-hydroxycyclohexyl)-2-piperazin-1-ylethyl]benzonitrile dihydrochloride]",91%
12,"OC1(C(CN2CCNCC2)c2cccc(Oc3ccccc3)c2)CCCCC1 (centres unmarked) [Example 311, 1-[1-(3-phenoxyphenyl)-2-piperazin-1-ylethy]cyclohexanol dihydrochloride]",86.2%
13,"OC1(C(CN2CCNCC2)c2ccc(OCc3ccccc3)cc2)CCCCC1 (centres unmarked) [Example 27, 1-{1-[4-(benzyloxy)phenyl]-2-piperazin-1-ylethyl}cyclohexanol dihydrochloride]",82%
14,"CN1CCN(CC(c2cccc(C#N)c2)C2(O)CCCCC2)CC1 (centres unmarked) [Example 161, 1-[1-(3-cyanophenyl)-2-(4-methylpiperazin-1-yl)ethyl]cyclohexanol dihydrochloride]",70%
15,"C[C@H](Oc1ccc(C(CN2CCN(C)CC2)C2(O)CCCCC2)cc1)c1ccccc1 (stereo partly drawn) [Example 470, 1-(2-(4-methylpiperazin-1-yl)-1-{4-[(1S)-1-phenylethoxy]phenyl}ethyl)cyclohexanol dihydrochloride]",14%
16,"CN1CCN(CC(c2ccc(O)c(OC(F)(F)F)c2)C2(O)CCCCC2)CC1 (centres unmarked) [Example 401, 4-[1-(1-hydroxycyclohexyl)-2-(4-methylpiperazin-1-yl)ethyl]-2-(trifluoromethoxy)phenol dihydrochloride]",25%
17,"CN1CCN(CC(c2ccc(OCc3ccccc3)cc2)C2(O)CCC2)CC1 (centres unmarked) [Example 71, 1-[1-[4-(benzyloxy)phenyl]-2-(4-methylpiperazin-1-yl)ethyl]cyclobutanol dihydrochloride]",25%
18,"OC1(C(CN2CCN(Cc3ccc4c(c3)OCO4)CC2)c2ccc(OC(F)(F)F)cc2)CCCCC1 (centres unmarked) [Example 285, 1-{2-[4-(1,3-benzodioxol-5-ylmethyl)piperazin-1-yl]-1-[4-(trifluoromethoxy)phenyl]ethyl}cyclohexanol dihydrochloride]",20%
19,"OC1(C(CN2CCNCC2)c2ccc(OCc3ccccc3)c(OC(F)(F)F)c2)CCCCC1 (centres unmarked) [Example 268, 1-{1-[4-(benzyloxy)-3-(trifluoromethoxy)phenyl]-2-piperazin-1-ylethyl}cyclohexanol dihydrochloride]",84%
20,"OC1(C(CN2CCNCC2)c2cccc(-c3ccc(Cl)c(Cl)c3)c2)CCC1 (centres unmarked) [Example 153, 1-[1-(3′,4′-dichloro-1,1′-biphenyl-3-yl)-2-piperazin-1-ylethyl]cyclobutanol dihydrochloride]",2%
21,"COc1cc(C(CN2CCN(C)CC2)C2(O)CCCCC2)ccc1OCc1ccc2ccccc2c1 (centres unmarked) [Example 445, 1-[1-[3-methoxy-4-(2-naphthylmethoxy)phenyl]-2-(4-methylpiperazin-1-yl)ethyl]cyclohexanol dihydrochloride]",22%
22,"N#Cc1ccccc1-c1ccc(C(CN2CCNCC2)C2(O)CCCCC2)cc1 (centres unmarked) [Example 290, 4′-[1-(1-hydroxycyclohexyl)-2-piperazin-1-ylethyl]-1,1′-biphenyl-2-carbonitrile dihydrochloride]",36%
23,"OC1(C(CN2CCN(CC3CCCCC3)CC2)c2cccc(Oc3ccccc3)c2)CCCCC1 (centres unmarked) [Example 313, 1-[2-[4-(cyclohexylmethyl)piperazin-1-yl]-1-(3-phenoxyphenyl)ethyl]cyclohexanol dihydrochloride]",57.3%
24,"OC1(C(CN2CCNCC2)c2ccc(-c3ccccc3F)cc2)CCCCC1 (centres unmarked) [Example 289, 1-[1-(2′-fluoro-1,1′-biphenyl-4-yl)-2-piperazin-1-ylethyl]cyclohexanol dihydrochloride]",34%

# Same assay, conditions: MDCK-Net6, read-out: % Inhibition @ 1 μM (hNET), 1 μM test compound, [3H]NE uptake
row,Compound,inhibition at 1 µM
1,"CN1CCN(C[C@H](c2cccc(OC(F)(F)F)c2)C2(O)CCCCC2)CC1 [Example 245, 1-{(1S)-2-(4-methylpiperazin-1-yl)-1-[3-(trifluoromethoxy)phenyl]ethyl}cyclohexanol dihydrochloride]",88%
2,"OC1(C(CN2CCNCC2)c2cccc(-c3ccccc3F)c2)CCCCC1 (centres unmarked) [Example 140, 1-[1-(2′-fluoro-1,1′-biphenyl-3-yl)-2-piperazin-1-ylethyl]cyclohexanol maleate]",52%
3,"CN1CCN(CC(c2ccc(OC(F)(F)F)cc2)C2(O)CCCCC2)CC1 (centres unmarked) [Example 283, 1-{2-(4-methylpiperazin-1-yl)-1-[4-(trifluoromethoxy)phenyl]ethyl}cyclohexanol dihydrochloride]",70.7%

# Same assay, conditions: [3H]NE uptake, test range 1 to 10,000 nM
row,Compound,EC50
1,"C=Cc1cccc(C(CN2CCNCC2)C2(O)CCCCC2)c1 (centres unmarked) [Example 162, 1-[2-piperazin-1-yl-1-(3-vinylphenyl)ethyl]cyclohexanol dihydrochloride]",410 nM
2,"OC1(C(CN2CCNCC2)c2cccc(-c3ccccc3F)c2)CCCCC1 (centres unmarked) [Example 140, 1-[1-(2′-fluoro-1,1′-biphenyl-3-yl)-2-piperazin-1-ylethyl]cyclohexanol maleate]",870 nM
3,"OC1(C(CN2CCNCC2)c2ccc(OCc3ccccc3)cc2)CCCCC1 (centres unmarked) [Example 27, 1-{1-[4-(benzyloxy)phenyl]-2-piperazin-1-ylethyl}cyclohexanol dihydrochloride]",470 nM
4,"CN1CCN(CC(c2cccc(C#N)c2)C2(O)CCCCC2)CC1 (centres unmarked) [Example 161, 1-[1-(3-cyanophenyl)-2-(4-methylpiperazin-1-yl)ethyl]cyclohexanol dihydrochloride]",220 nM
